Here are results for 2 molecules from PubChem BioAssay (NCI).

Holding throughout (test): DTP human tumour cell line panel, 48 h
In experiment [1] the test system is MDA-N.
Experiment [2] relates to DU-145 prostate.
In experiment [3] the test system is DMS 114 small cell lung.
The test system of experiment [4] is HOP-18 NSCLC.
Experiment [5] has as its system RXF 393 renal.
The subject of experiment [6] is SF-268 CNS.
In experiment [7] the test system is M19-MEL melanoma.

Broadly, the TGI is the concentration at which net growth stops.

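Results reflect a 48-hour exposure of cells in 96-well plates to compound at five concentrations. TGI denotes the concentration required for complete inhibition of growth.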

`CSCCC(NC(=O)OCc1ccccc1)NC(=O)OCc1ccccc1`: the TGI in experiment [1] and in experiment [2] was > 100 µM throughout.

Consider `NC1(C(=O)O)CCCC1`, for which the concentration for total growth inhibition (TGI) in experiment [3] was > 625 µM; in experiment [4], > 625 µM; in experiment [5], > 625 µM; in experiment [6], > 370 µM; in experiment [7], > 625 µM.
